# Test results published in ChEMBL document CHEMBL5244281, “Tackling multidrug-resistant Staphylococcus aureus by natural products and their analogues acting as NorA efflux pump inhibitors” (Bioorg Med Chem, 2023).
# Experiments:
# Staphylococcus aureus [1] = assay: Antibacterial activity against Staphylococcus aureus SA10 assessed as bacterial growth inhibition incubated for 24 hrs by resazurin based microdilution assay; type: functional
# Candida albicans [2] = assay: Antifungal activity against Candida albicans NEWP031 assessed as bacterial growth inhibition incubated for 24 hrs by resazurin based microdilution assay; type: functional
# [3] = target: T1, Quinolone resistance protein NorA (Staphylococcus aureus) (UniProt P0A0J7); assay: Potentiation of EtBr-induced inhibition of NorA efflux in Staphylococcus aureus 1199B overexpressing NorA assessed as reduction in EtBr MIC at 256 ug/ml incubated for 24 hrs by resazurin based assay (Rvb= 32 ug/ml); details: dose 256.0 µg/ml
# T1 sequence (whole entry): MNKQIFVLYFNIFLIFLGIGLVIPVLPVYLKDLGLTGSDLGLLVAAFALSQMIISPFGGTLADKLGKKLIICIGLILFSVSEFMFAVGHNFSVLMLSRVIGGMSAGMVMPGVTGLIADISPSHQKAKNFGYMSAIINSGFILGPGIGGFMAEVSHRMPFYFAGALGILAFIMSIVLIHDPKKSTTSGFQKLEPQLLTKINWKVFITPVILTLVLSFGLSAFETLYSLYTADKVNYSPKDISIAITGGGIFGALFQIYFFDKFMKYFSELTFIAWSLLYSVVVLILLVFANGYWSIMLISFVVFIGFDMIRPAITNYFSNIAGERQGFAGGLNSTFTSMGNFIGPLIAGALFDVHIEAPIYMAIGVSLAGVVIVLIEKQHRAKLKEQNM
# Staphylococcus aureus [4] = assay: Antibacterial activity against Staphylococcus aureus 1199 assessed as bacterial growth inhibition incubated for 24 hrs by resazurin based microdilution assay; type: functional
# Staphylococcus aureus [5] = assay: Antibacterial activity against Staphylococcus aureus ATCC 25923 assessed as bacterial growth inhibition incubated for 24 hrs by resazurin based microdilution assay; type: functional
# Escherichia coli [6] = assay: Antibacterial activity against Escherichia coli ATCC […] assessed as bacterial growth inhibition incubated for 24 hrs by resazurin based microdilution assay; type: functional
# [7] = target: T1, Quinolone resistance protein NorA (Staphylococcus aureus); details: 1199B, dose 128.0 µg/ml, time 24.0 hrs
# Staphylococcus aureus [8] = assay: Antibacterial activity against norfloxacin resistant Staphylococcus aureus 1199B overexpressing NorA assessed as bacterial growth inhibition incubated for 24 hrs by resazurin based microdilution assay; type: functional
# [9] = target: T1, Quinolone resistance protein NorA (Staphylococcus aureus); assay: Potentiation of EtBr-induced inhibition of NorA efflux pump in Staphylococcus aureus 1199B overexpressing NorA efflux pump assessed as reduction in EtBr MIC at 1/8 times of MIC by resazurin based assay (Rvb= 512 ug/ml)
# Escherichia coli [10] = assay: Potentiation of gentamicin-induced antibacterial activity against Escherichia coli 06 assessed as gentamicin MIC at 1/8 times of MIC (Rvb= 322 ug/ml); type: functional
# Staphylococcus aureus [11] = assay: Antibacterial activity against norfloxacin resistant Staphylococcus aureus 1199B overexpressing NorA assessed as bacterial growth inhibition; type: functional
# Staphylococcus aureus [12] = assay: Antibacterial activity against norfloxacin resistant Staphylococcus aureus 1199 assessed as bacterial growth inhibition; type: functional
# Enterococcus faecalis = assay: Antimicrobial activity against Enterococcus faecalis ATCC 29212 assessed as bacterial growth inhibition incubated for 18 hrs by broth microdilution assay; type: functional
# Escherichia coli [13] = assay: Antimicrobial activity against Escherichia coli ATCC 25922 assessed as bacterial growth inhibition incubated for 18 hrs by broth microdilution assay; type: functional
# Staphylococcus aureus [14] = assay: Antimicrobial activity against Staphylococcus aureus ATCC 43300 assessed as bacterial growth inhibition incubated for 18 hrs by broth microdilution assay; type: functional
# Staphylococcus aureus [15] = assay: Antimicrobial activity against Staphylococcus aureus BAA-44 assessed as bacterial growth inhibition incubated for 18 hrs by broth microdilution assay; type: functional
# Staphylococcus aureus [16] = assay: Antimicrobial activity against Staphylococcus aureus ATCC 29213 assessed as bacterial growth inhibition incubated for 18 hrs by broth microdilution assay; type: functional
# Enterococcus faecium = assay: Antimicrobial activity against Enterococcus faecium ATCC 700221 assessed as bacterial growth inhibition incubated for 18 hrs by broth microdilution assay; type: functional
# Klebsiella pneumoniae = assay: Antimicrobial activity against Klebsiella pneumoniae 1213-2 assessed as bacterial growth inhibition incubated for 18 hrs by broth microdilution assay; type: functional
# [17] = target: T1, Quinolone resistance protein NorA (Staphylococcus aureus); details: 1199B
# Escherichia coli [18] = assay: Antibacterial activity against Escherichia coli ATCC 25922 assessed as bacterial growth inhibition incubated for 24 hrs by microdilution method; type: functional
# Staphylococcus aureus [19] = assay: Antibacterial activity against Staphylococcus aureus 1199B overexpressing NorA efflux protein assessed as bacterial growth inhibition incubated for 24 hrs by microdilution method; type: functional
# Staphylococcus aureus [20] = assay: Antibacterial activity against wild type Staphylococcus aureus ATCC 25923 assessed as bacterial growth inhibition incubated for 24 hrs by microdilution method; type: functional
# Candida albicans [21] = assay: Antimicrobial activity against Candida albicans ATCC 10231 assessed as […] growth inhibition incubated for 24 hrs by microdilution method; type: functional
# [22] = target: T1, Quinolone resistance protein NorA (Staphylococcus aureus); assay: Inhibition of NorA efflux pump in Staphylococcus aureus 1199B overexpressing NorA efflux pump assessed as decrease in ciprofloxacin MIC at 1/4 times MIC and measured for 45 mins in presence of ciprofloxacin by fluorimetric analysis (Rvb=8 ug/ml)
# Staphylococcus aureus [23] = assay: Antibacterial activity against Staphylococcus aureus K1758 with NorA knockout assessed as bacterial growth inhibition incubated for 18 hrs by broth dilution method; type: functional
# [24] = target: T1, Quinolone resistance protein NorA (Staphylococcus aureus); assay: Inhibition of NorA efflux pump in Staphylococcus aureus 1199B overexpressing NorA efflux pump assessed as decrease in norfloxacin MIC at 1/4 times MIC and measured for 45 mins in presence of norfloxacin by fluorimetric analysis (Rvb=32 ug/ml)
# Staphylococcus aureus [25] = assay: Antibacterial activity against Staphylococcus aureus 1199B overexpressing NorA efflux pump assessed as bacterial growth inhibition incubated for 18 hrs by broth dilution method; type: functional
# Staphylococcus aureus [26] = assay: Synergistic antibacterial activity against methicillin-resistant Staphylococcus aureus clinical isolate assessed as fractional inhibitory concentration index in presence of ciprofloxacin by checkerboard assay; type: functional
# Staphylococcus aureus [27] = assay: Antibacterial activity against methicillin-resistant Staphylococcus aureus clinical isolate assessed as bacterial growth inhibition by broth dilution method; type: functional
# [28] = target: T1, Quinolone resistance protein NorA (Staphylococcus aureus); assay: Inhibition of NorA efflux pump in methicillin-resistant Staphylococcus aureus clinical isolate assessed as decrease in ciprofloxacin MIC and measured for 20 mins in presence of ciprofloxacin by spectrofluorimetric analysis (Rvb=128 ug/ml)
# [29] = target: T1, Quinolone resistance protein NorA (Staphylococcus aureus); assay: Inhibition of NorA efflux pump in methicillin-resistant Staphylococcus aureus clinical isolate assessed as EtBr MIC using EtBr as substrate at 64 ug/ml and measured for 20 mins by spectrofluorimetric analysis (Rvb=[…] ug/ml); details: dose 64.0 µg/ml
# Staphylococcus aureus [30] = assay: Antibacterial activity against wild type Staphylococcus aureus ATCC 25923 assessed as bacterial growth inhibition incubated for 24 hrs by resazurin based microdilution assay; type: functional
# Staphylococcus aureus [31] = assay: Antibacterial activity against Staphylococcus aureus 1199B overexpressing NorA efflux protein assessed as bacterial growth inhibition incubated for 24 hrs by resazurin based microdilution assay; type: functional
# Staphylococcus aureus [32] = assay: Antibacterial activity against Staphylococcus aureus K2068 overexpressing mepA gene assessed as bacterial growth inhibition incubated for 24 hrs by resazurin based microdilution assay; type: functional
# Staphylococcus aureus [33] = assay: Antibacterial activity against Staphylococcus aureus K4100 overexpressing qacC gene assessed as bacterial growth inhibition incubated for 24 hrs by resazurin based microdilution assay; type: functional
# Staphylococcus aureus [34] = assay: Antibacterial activity against Staphylococcus aureus RN4220 overexpressing […] efflux protein assessed as bacterial growth inhibition incubated for 24 hrs by resazurin based microdilution assay; type: functional
# Staphylococcus aureus [35] = assay: Antibacterial activity against Staphylococcus aureus K4414 overexpressing qacA/B gene assessed as bacterial growth inhibition incubated for 24 hrs by resazurin based microdilution assay; type: functional
# Staphylococcus aureus [36] = assay: Antibacterial activity against Staphylococcus aureus IS-58 overexpressing TetK efflux protein assessed as bacterial growth inhibition incubated for 24 hrs by resazurin based microdilution assay; type: functional
# [37] = target: T1, Quinolone resistance protein NorA (Staphylococcus aureus); assay: Potentiation of ciprofloxacin-mediated inhibition of NorA efflux pump in Staphylococcus aureus 1199B overexpressing NorA efflux pump assessed as reduction in ciprofloxacin MIC (Rvb= […] ug/ml)
compound,measurement,setting,value
CC(C)CCCC(C)CCO (stereo not given),MIC,Staphylococcus aureus [1],≥ 1020 µg/mL
same,MIC,Candida albicans [2],2050 µg/mL
same,MIC,[3],16 µg/mL
same,MIC,Staphylococcus aureus [4],≥ 1020 µg/mL
same,MIC,Staphylococcus aureus [5],≥ 1020 µg/mL
same,MIC,Escherichia coli [6],2050 µg/mL
same,MIC,[7],32 µg/mL
same,MIC,Staphylococcus aureus [8],≥ 1020 µg/mL
C[C@H]1[C@H](C)CC[C@]2(C)CC[C@]3(C)C(=CC[C@@H]4[C@@]5(C)CC[C@H](O)C(C)(C)[C@@H]5CC[C@]43C)[C@H]12,MIC,[9],406 µg/mL
same,MIC,Escherichia coli [10],203 µg/mL
CC1=CCC(C(C)C)CC1 (stereo not given),MIC,Staphylococcus aureus [11],> 1020 µg/mL
same,MIC,Staphylococcus aureus [12],> 1020 µg/mL
CN(CC[C@H](N)CC(=O)N[C@H]1C=C[C@H](n2ccc(N)nc2=O)O[C@@H]1C(N)=O)C(=N)N,MIC,Enterococcus faecalis,12.5 µg/mL
same,MIC,Escherichia coli [13],12.5 µg/mL
same,MIC,Staphylococcus aureus [14],12.5 µg/mL
same,MIC,Staphylococcus aureus [15],12.5 µg/mL
same,MIC,Staphylococcus aureus [16],6.25 µg/mL
same,MIC,Enterococcus faecium,50 µg/mL
same,MIC,Klebsiella pneumoniae,50 µg/mL
COc1ccc(/C=C/[C@@H]2c3c(cc(O)cc3OC)C[C@H]3c4ccc(O)cc4O[C@H](c4ccccc4)[C@@H]23)cc1,MIC,[17],16 µg/mL
same,MIC,Escherichia coli [18],> 1020 µg/mL
same,MIC,Staphylococcus aureus [19],> 1020 µg/mL
same,MIC,Staphylococcus aureus [20],> 1020 µg/mL
same,MIC,Candida albicans [21],161 µg/mL
O=C(/C=C/c1ccco1)N/N=C/c1ccc(Br)o1,MIC,[22],0.5 µg/mL
same,MIC,Staphylococcus aureus [23],64 µg/mL
same,MIC,[24],1 µg/mL
same,MIC,Staphylococcus aureus [25],64 µg/mL
CCN(CC)C(=O)/C=C/c1ccc(OC(C)=O)c(OC)c1,fractional inhibitory concentration index (FICI),Staphylococcus aureus [26],0.325
same,MIC,Staphylococcus aureus [27],> 125 µg/mL
same,MIC,[28],32 µg/mL
same,MIC,[29],4 µg/mL
COc1ccc(/C=C/C(=O)c2cc(O)c(O)c(OC)c2)cc1OC,MIC,Staphylococcus aureus [30],100 µg/mL
same,MIC,Staphylococcus aureus [31],100 µg/mL
same,MIC,Staphylococcus aureus [32],100 µg/mL
same,MIC,[17],16 µg/mL
same,MIC,Staphylococcus aureus [33],100 µg/mL
same,MIC,Staphylococcus aureus [34],100 µg/mL
same,MIC,Staphylococcus aureus [35],100 µg/mL
same,MIC,Staphylococcus aureus [36],100 µg/mL
COc1cc(O)cc2c1[C@@H](/C=C/c1ccc(O)cc1)[C@@H]1[C@@H](c3ccccc3)Oc3cc(O)ccc3[C@@H]1O2,MIC,Escherichia coli [18],> 1020 µg/mL
same,MIC,Staphylococcus aureus [19],> 1020 µg/mL
same,MIC,Staphylococcus aureus [20],> 1020 µg/mL
same,MIC,Candida albicans [21],> 1020 µg/mL
CC(/C=C/C(=O)N1CCCC1)=C\c1ccc2c(c1)CCC(C)O2 (stereo not given),MIC,[37],3.12 µg/mL
